Reference: US11279733B2, “Peptide antibiotics” (priority 2017, dated 2022)
Converted amounts (≈) assume the structure as drawn. Where two headings read alike, the source gives them in different places. Positions of bridges follow the written chain, without caps; N, C: chain ends. Non-standard residues stand in square brackets, D forms with d. Residues, ends and D or L forms follow the SMILES beside them. *: point of attachment. Decanoyl(3R-OH) = CCCCCCC[C@@H](O)CC(=O)*; dIgl = N[C@@H](C(=O)O)C1Cc2ccccc2C1; Igl = N[C@H](C(=O)O)C1Cc2ccccc2C1; Nonanoyl = CCCCCCCCC(=O)*; dDab = NCC[C@@H](N)C(=O)O; Octanoyl = CCCCCCCC(=O)*; dDap = NC[C@@H](N)C(=O)O; Dab = NCC[C@H](N)C(=O)O; Dap = NC[C@H](N)C(=O)O

Tests used:
[1] = tested on: S. aureus ATCC 25923, MSSA; conditions: ATCC 25923
Summary of the method: (§1)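 Mid-log cultures grown in Mueller Hinton broth at 37° C were tested by 2-fold broth microdilution at 5×10^5 CFU/mL final. Compounds were dissolved in water and tested over a final range of 32 to 0.015 μg/mL.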

[2] = tested on: K. pneumoniae GN_102 PmxR; conditions: GN 102 PmxR
Summary of the method: as §1

[3] = tested on: K. pneumoniae ATCC BAA-2146, NDM-1 pos; conditions: ATCC BAA-2146
Summary of the method: as §1

A. baumannii GN_093 PmxR = conditions: GN 093 PmxR
Summary of the method: as §1

[4] = tested on: P. aeruginosa GN_043, PmxR
Summary of the method: as §1

K. pneumoniae ATCC 13883 = conditions: ATCC 13883
Summary of the method: as §1

[5] = tested on: K. pneumoniae ATCC 700603, MDR; conditions: ATCC 700603
Summary of the method: as §1

[6] = tested on: P. aeruginosa GN_105, PmxR; conditions: GN 105, PmxR
Summary of the method: as §1

A. baumannii ATCC 19606 = conditions: ATCC 19606
Summary of the method: as §1

[7] = tested on: K. pneumoniae GN_106, PmxR; conditions: GN 106, PmxR
Summary of the method: as §1

E. coli ATCC 25922 = conditions: ATCC 25922
Summary of the method: as §1

P. aeruginosa ATCC 27853 = conditions: ATCC 27853
Summary of the method: as §1

in vitro = conditions: human
Summary of the method: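 Fluorescence read-out (excitation 560, emission 590) after a 2 h, 37 °C incubation with 5 μM resazurin, following 24 h compound treatment of cells plated at 4000 per well. CC50 values come from fitting dose–response curves of growth inhibition.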

SMILES	MIC S. aureus ATCC 25923, MSSA [1]	MIC K. pneumoniae GN_102 PmxR [2]	MIC K. pneumoniae ATCC BAA-2146, NDM-1 pos [3]	MIC A. baumannii GN_093 PmxR (A. baumannii GN_093 PmxR)	MIC P. aeruginosa GN_043, PmxR ([4]; polymyxin-resistant)	MIC K. pneumoniae ATCC 13883 (K. pneumoniae ATCC 13883)	MIC K. pneumoniae ATCC 700603, MDR [5]	MIC P. aeruginosa GN_105, PmxR [6]	MIC A. baumannii ATCC 19606 (A. baumannii ATCC 19606)	MIC K. pneumoniae GN_106, PmxR [7]	MIC E. coli ATCC 25922 (E. coli ATCC 25922)	MIC P. aeruginosa ATCC 27853 (P. aeruginosa ATCC 27853)	CC50 at 24 h (in vitro)	MIC P. aeruginosa GN_043, PmxR ([4]; P. aeruginosa GN_043, PmxR)
CCCCCCCC(=O)N[C@H](CCN)C(=O)N[C@H]1CCNC(=O)[C@H](Cc2c[nH]c3ccccc23)NC(=O)[C@H](CCN)NC(=O)[C@H](CCN)NC(=O)[C@H](CC(C)C)NC(=O)[C@@H](C2Cc3ccccc3C2)NC(=O)[C@H](CCN)NC1=O [compound 8900, nC7CO-D-Dab-cyc[L-Dab-L-Dab-D-indanylgly-L-Leu-L-Dab-L-Dab-L-Trp]] (Octanoyl-[dDab][Dab][Dab][dIgl]L[Dab][Dab]W; lactam 2-C)	8 µg/mL (≈ 7.28 µM)	16 µg/mL (≈ 14.6 µM)	8 µg/mL (≈ 7.28 µM)	>32 µg/mL	4 µg/mL (≈ 3.64 µM)	16 µg/mL (≈ 14.6 µM)	8 µg/mL (≈ 7.28 µM)	8 µg/mL (≈ 7.28 µM)	32 µg/mL (≈ 29.1 µM)	16 µg/mL (≈ 14.6 µM)	4 µg/mL (≈ 3.64 µM)	4 µg/mL (≈ 3.64 µM)	115 µM	
CCCCCCCCC(=O)N[C@H](CN)C(=O)N[C@H]1CCNC(=O)[C@H](CC(C)C)NC(=O)[C@H](CCN)NC(=O)[C@H](CCN)NC(=O)[C@H](CC(C)C)NC(=O)[C@@H](Cc2ccccc2)NC(=O)[C@H](CCN)NC1=O [compound 9191, nC8CO-D-Dap-cyc[L-Dab-L-Dab-D-Phe-L-Leu-L-Dab-L-Dab-L-Leu]] (Nonanoyl-[dDap][Dab][Dab][dF]L[Dab][Dab]L; lactam 2-C)	32 µg/mL (≈ 32 µM)	8 µg/mL (≈ 8 µM)	8 µg/mL (≈ 8 µM)	>32 µg/mL		8 µg/mL (≈ 8 µM)	8 µg/mL (≈ 8 µM)	2 µg/mL (≈ 2 µM)	>32 µg/mL	16 µg/mL (≈ 16 µM)	4 µg/mL (≈ 4 µM)	4 µg/mL (≈ 4 µM)	> 300 µM	2 µg/mL (≈ 2 µM)
CCCCCCCC(=O)N[C@H](CN)C(=O)N[C@H]1CCNC(=O)[C@H](Cc2c[nH]c3ccccc23)NC(=O)[C@H](CCN)NC(=O)[C@H](CCN)NC(=O)[C@H](CC(C)C)NC(=O)[C@@H](Cc2ccccc2)NC(=O)[C@H](CCN)NC1=O [compound 8887, nC7CO-D-Dap-cyc[L-Dab-L-Dab-D-Phe-L-Leu-L-Dab-L-Dab-L-Trp]] (Octanoyl-[dDap][Dab][Dab][dF]L[Dab][Dab]W; lactam 2-C)	8 µg/mL (≈ 7.55 µM)	32 µg/mL (≈ 30.2 µM)	8 µg/mL (≈ 7.55 µM)	>32 µg/mL	2 µg/mL (≈ 1.89 µM)	16 µg/mL (≈ 15.1 µM)	4 µg/mL (≈ 3.78 µM)	8 µg/mL (≈ 7.55 µM)	32 µg/mL (≈ 30.2 µM)	16 µg/mL (≈ 15.1 µM)	8 µg/mL (≈ 7.55 µM)	2 µg/mL (≈ 1.89 µM)	190 µM	
CCCCCCC[C@@H](O)CC(=O)N[C@H](CN)C(=O)N[C@H]1CCNC(=O)[C@H](Cc2c[nH]c3ccccc23)NC(=O)[C@H](CCCCN)NC(=O)[C@H](CCCNC(=N)N)NC(=O)[C@H](C2Cc3ccccc3C2)NC(=O)[C@@H](Cc2ccccc2)NC(=O)[C@H](CCN)NC1=O [compound 8890, 3(R)OH-nC9CO-D-Dap-cyc[L-Dab-L-Dab-D-Phe-L-indanylgly-L-Arg-L-Lys-L-Trp]] ({Decanoyl(3R-OH)}-[dDap][Dab][Dab][dF][Igl]RKW; lactam 2-C)	2 µg/mL (≈ 1.6 µM)	4 µg/mL (≈ 3.21 µM)	4 µg/mL (≈ 3.21 µM)	8 µg/mL (≈ 6.41 µM)	4 µg/mL (≈ 3.21 µM)	2 µg/mL (≈ 1.6 µM)	2 µg/mL (≈ 1.6 µM)	2 µg/mL (≈ 1.6 µM)	8 µg/mL (≈ 6.41 µM)	4 µg/mL (≈ 3.21 µM)	2 µg/mL (≈ 1.6 µM)	4 µg/mL (≈ 3.21 µM)	67 µM	
CCCCCCC[C@@H](O)CC(=O)N[C@H](CCN)C(=O)N[C@H]1CCNC(=O)[C@H](CC(C)C)NC(=O)[C@H](CN)NC(=O)[C@H](CCN)NC(=O)[C@H](CC(C)C)NC(=O)[C@@H](Cc2ccccc2)NC(=O)[C@H](CCN)NC1=O [compound 987, 3(R)OH-nC9CO-D-Dab-cyc[L-Dab-L-Dab-D-Phe-L-Leu-L-Dab-L-Dap-L-Leu]] ({Decanoyl(3R-OH)}-[dDab][Dab][Dab][dF]L[Dab][Dap]L; lactam 2-C)	16 µg/mL (≈ 15.5 µM)	16 µg/mL (≈ 15.5 µM)	4 µg/mL (≈ 3.88 µM)	8 µg/mL (≈ 7.76 µM)	2 µg/mL (≈ 1.94 µM)	4 µg/mL (≈ 3.88 µM)	4 µg/mL (≈ 3.88 µM)	4 µg/mL (≈ 3.88 µM)	1 µg/mL (≈ 0.971 µM)	16 µg/mL (≈ 15.5 µM)	8 µg/mL (≈ 7.76 µM)	2 µg/mL (≈ 1.94 µM)	> 300 µM	
